Test results from patent US20140206748A1, “COMPOSITIONS AND METHODS RELATED TO PROSTATE CANCER” (Regents of the University of Minnesota, priority 2013, published 2014).
Where two headings read alike, the source gives them in different places.

What was measured:
[1] = system: LNCaP cells; details: 0.1 nM DHT to 100 nM DHT
[2] = system: LNCaP cells
Description: Normalized gene expression data was ranked using the Signal2Noise metric and GSEA was performed against 1000 random gene set permutations.

[3] = system: castration-resistant prostate cancer patients; details: Phase III trials; cited from earlier work
[4] = system: 22Rv1 cells; experiment: Growth of 22Rv1 cells under castrate conditions (crystal violet staining); format: cell-based, human; details: CSS; 10 μM bicalutamide or 1 μM enzalutamide
[5] = system: CWR-R1 cells; details: castrate conditions; 10 μM bicalutamide or 1 μM enzalutamide
[6] = system: androgen receptor (AR); experiment: MMTV-Luc reporter assay in CWR-R1 early and CWR-R1 late cells; format: cell-based, human; details: 1 nM mibolerone, 24 hours; CWR-R1 early vs CWR-R1 late cells

Compound: C[C@]12CCC(=O)C[C@@H]1CC[C@@H]1[C@@H]2CC[C@]2(C)[C@@H](O)CC[C@@H]12 [DHT, dihydrotestosterone]
- PSA expression [1]: increased concomitant with increasing androgen concentration
- expression of M-phase genes UBE2C, CDCA5, ZWINT, and CCNA2 [1]: biphasic response
- enrichment of the "full-length AR" signature (GSEA) ([2]; 1 nM DHT and 100 nM DHT datasets): positive enrichment
- enrichment of the "AR-V-specific" signature (GSEA) ([2]; 1 nM DHT dataset (GSE26483)): positive enrichment
- enrichment of the "AR-V-specific" signature (GSEA) ([2]; 100 nM DHT dataset (GSE7868)): strong negative enrichment

Compound: CNC(=O)c1ccc(N2C(=S)N(c3ccc(C#N)c(C(F)(F)F)c3)C(=O)C2(C)C)cc1F [enzalutamide]
- increase of overall survival [3]: 4.8 months
- growth of 22Rv1 cells under castrate conditions [4]: unaffected
- androgen-independent growth of deletion-enriched CWR-R1 cells [5]: insensitive

Compound: C[C@@H]1CC2=CC(=O)CC[C@@H]2[C@H]2CC[C@@]3(C)[C@@H](CC[C@]3(C)O)[C@@H]21 [mibolerone]
- AR transactivation (MMTV-Luc) in response to androgen [6]: higher in CWR-R1 early cells than CWR-R1 late cells
